Measured values taken from patent US6723699B1, “Treating disorders by application of insulin-like growth factors and analogs” (Cephalon, Inc., priority 1989, dated 2004).
Where no end group is shown, it is not given here. [ ]: non-standard residue; d: D form. Tyr(3,5-I2) = N[C@@H](Cc1cc(I)c(O)c(I)c1)C(=O)O

Key:
[1] = test system: E18 cortical neuronal cultures; assay: Cortical neuronal cell survival, calcein-AM fluorometric viability assay; format: cell-based, rat; conditions: for total number of cells surviving relative to control (in words): 100 μM peptide, 4 days, insulin/serum-free media
Method: To determine whether carboxy-terminal linear peptide derivatives of IGFs can promote the survival of cortical neuronal cells, dissociated cultures of embryonic rat cortex were prepared and assayed for the total number of viable cells present after incubation in the presence or absence of peptide. Cortices were dissected from E18 embryonic rats, dissociated by enzymatic digestion or mechanical dissociation and seeded at a density of 6.25×10^4 cells/cm^2 in defined insulin/serum-free media (Bottenstein and Sato, PNAS, 76:514-517, (1979)) in the presence or absence of 100 μM peptide. […] This compound is taken up by all cells but can only be converted to a fluorescent derivative by live cells. The relative fluorescence values obtained reflect the total viable cell number. […] NO: 5) (Example 22), and the amino acid sequence […] To determine the potency of the carboxy terminal peptides we analyzed the ability of peptides to promote cell survival. We measured the total number of surviving cells within cortical neuronal cultures relative to basal control cultures. FIG. 16 illustrates the concentration-response relationship for peptide […] All peptides examined are effective within the micromolar concentration range in the fluorometric viability assay.

IGF-I receptor = target: T1, IGF-I receptor (Rattus norvegicus, UniProt P24062); assay: 125I-[Threonine59]IGF-I displacement (IGF-I receptor competition) assay, rat brain homogenate; format: binding; conditions: for PERCENT MAX. BOUND: peptide 100 μM
T1 construct: Brain tissue containing the cerebral cortex and cerebellum was dissected from adult Sprague-Dawley rats; from tissue; host or cells: adult Sprague-Dawley rat brain (cerebral cortex and cerebellum), homogenate pellet
T1 sequence (P24062 31-737 limits assumed): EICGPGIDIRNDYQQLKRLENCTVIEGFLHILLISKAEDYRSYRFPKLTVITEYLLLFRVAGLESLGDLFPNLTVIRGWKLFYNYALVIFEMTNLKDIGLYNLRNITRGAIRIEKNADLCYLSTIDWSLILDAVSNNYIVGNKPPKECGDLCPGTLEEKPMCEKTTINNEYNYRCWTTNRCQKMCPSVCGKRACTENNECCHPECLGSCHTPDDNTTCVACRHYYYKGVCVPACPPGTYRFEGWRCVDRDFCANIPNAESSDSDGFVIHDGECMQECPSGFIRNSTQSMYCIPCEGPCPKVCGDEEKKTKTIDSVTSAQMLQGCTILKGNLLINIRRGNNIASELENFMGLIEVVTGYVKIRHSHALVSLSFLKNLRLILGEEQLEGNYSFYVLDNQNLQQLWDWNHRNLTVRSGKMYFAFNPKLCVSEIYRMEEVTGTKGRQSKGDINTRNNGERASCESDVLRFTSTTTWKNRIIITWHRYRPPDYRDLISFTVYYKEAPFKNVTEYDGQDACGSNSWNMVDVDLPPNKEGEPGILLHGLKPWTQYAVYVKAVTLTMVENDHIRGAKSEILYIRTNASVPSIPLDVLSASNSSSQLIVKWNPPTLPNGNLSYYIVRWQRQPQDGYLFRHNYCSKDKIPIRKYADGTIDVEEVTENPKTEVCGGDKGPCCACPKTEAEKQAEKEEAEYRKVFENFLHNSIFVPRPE
T1 sequence (P24062 742-1370 partner limits assumed): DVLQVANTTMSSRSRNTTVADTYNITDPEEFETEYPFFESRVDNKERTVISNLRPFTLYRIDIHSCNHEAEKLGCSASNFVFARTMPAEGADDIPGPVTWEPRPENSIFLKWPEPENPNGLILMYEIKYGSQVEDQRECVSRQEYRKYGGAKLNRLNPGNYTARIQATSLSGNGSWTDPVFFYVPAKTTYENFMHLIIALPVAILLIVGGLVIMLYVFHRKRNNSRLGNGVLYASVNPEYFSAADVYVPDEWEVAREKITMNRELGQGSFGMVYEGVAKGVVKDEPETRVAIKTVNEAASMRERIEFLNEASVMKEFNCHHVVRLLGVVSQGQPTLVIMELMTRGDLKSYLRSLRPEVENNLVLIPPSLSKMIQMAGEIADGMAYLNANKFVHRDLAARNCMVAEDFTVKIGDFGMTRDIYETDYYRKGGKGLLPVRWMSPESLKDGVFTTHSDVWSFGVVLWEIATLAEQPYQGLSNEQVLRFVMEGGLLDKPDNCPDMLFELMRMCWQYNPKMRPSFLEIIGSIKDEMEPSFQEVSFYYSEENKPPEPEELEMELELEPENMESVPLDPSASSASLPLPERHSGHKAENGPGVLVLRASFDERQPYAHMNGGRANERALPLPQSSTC
Method: Brain tissue containing the cerebral cortex and cerebellum was dissected from adult Sprague-Dawley rats (Hilltop Lab Animals, Inc. Scottsdale, Pa.) and homogenized at low power for 5 minutes in a Brinkmann Polytron homogenizer (Westbury, N.Y.) containing 50 volumes of ice-cold buffer consisting of 10 mM HEPES, 0.5% BSA, 0.0125% NEM, 0.025% bacitracin, and 100 KIU/ml aprotinin, pH 7.6 (Bohannon et al., Endocrinology 119:943-945 (1986). Following homogenization, the tissue was collected after centrifugation at 7800×g for 20 minutes and resuspended in 10 volumes of assay buffer. Tissue (50 μl), 100 μl ^125I-[Threonine^59]IGF-I (20 pM), and 50 μl of buffer or peptides of varying concentration were added to 96-well plates and incubated on ice for 3 hours. After the incubation period, the tissue was collected on Whatman GF/C filters that had been pre-soaked in 0.01% polyethylenimine and washed four times with ice-cold assay buffer using a Brandel cell harvester (Gaithersburg, Md.). The filters were removed and the bound ^125I-[Threonine 59]IGF-I was measured using a Beckman Model 5500B Gamma Counter.

[2] = test system: 125I-[Threonine59]IGF-I binding to brain tissue sections; assay: 125I-[Threonine59]IGF-I binding displacement on rat brain tissue sections
Method: Brains were removed intact from adult Sprague-Dawley rats, frozen on powdered dry ice, and cut into 20 μm sections (at the level of the cerebellum and brain stem) which were
thaw-mounted onto gelatin-coated glass microscope slides (Herkenham and Pert, J. Neurosci. 2:1129-1149 (1982)). Using a modification of the method of Bohannon et al. (1986), the tissue sections were covered with 250 μl of HEPES assay buffer (see Example 1) containing 0.01 nM ^125I-[Threonine^59]IGF-I alone or in combination with unlabeled IGF-I, IGF-II, or synthetic peptide fragments thereof. The sections were incubated at 4° C. for 24 hours and then rinsed in three 1-minute changes (200 ml each) of ice-cold HEPES assay buffer. The tissue sections were then wiped off the slides with filter paper, and the tissue-bound radioactivity was measured in a Beckman Model 5500B Gamma Counter.

cortical neurons = assay: Survival of neurite bearing cells in cultured rat cortical cells; format: cell-based; conditions: 24 hours after plating
Method: (§1) The ability of IGF-I and a synthetic derivative of IGF-II (IGF-II(54-67)) to increase the incorporation of [^3H]-leucine and to promote the survival of neurite bearing cells was examined in cultured rat cortical cells (the numbers “54-67” in IGF-II indicate the fragment includes amino acid residues 54-67 of native IGF-II).
(§2) Measurements were performed, using standard techniques known to those skilled in the art, on dissociated cortical cells obtained from day 18-19 embryonic rats. Cells were seeded at 1.5×10^4/cm^2 on poly-1-ornithine-laminin coated plastic tissue culture cells in serum-free N2 medium (Bottenstein et al. Proc. Natl. Acad. Sci. U.S.A. 76: 514-517 (1978)). [^3H]-leucine was added to cells at plating for the incorporation assay. Cultures were terminated 24 hours after plating and measured for either [^3H]-leucine incorporation or for the number of neuritic cells by microscopic examination.

[3] = test system: cultured rat cortical cells; assay: [3H]-leucine incorporation in cultured rat cortical cells; format: cell-based; conditions: low density 24 hour mixed cortical cultures
Method: as §1, §2

[4] = test system: brain ornithine decarboxylase; assay: Induction of brain ornithine decarboxylase after intracerebral injection, 4 day old rats; format: in vivo, rat; conditions: 6 hours
Method: The in vivo activity of IGF-I, IGF-II or synthetic peptide derivatives of these molecules was tested using a biochemical marker for CNS neurotrophic activity, the induction of brain ornithine decarboxylase. The induction (i.e. increased activity) of ornithine decarboxylase has been reported to be a general marker for the actions of a variety of trophic factors. (Schwartz et al., Dev. Brain Res. 1:403-413 (1981); Kanje et al., Brain Res. 381:24-28 (1986); Russell et al., Life Sci. 19:1297-1306 (1976); MacDonnell et al. Proc. Natl. Acad. Sci. USA 74, 4681-4684 (1977); […] et al. Proc. Natl. Acad. Sci. USA 82, 4365-4368 (1985)). Sprague-Dawley rats, 4 days old, were injected intracerebrally (in the area of the lateral ventricle) with 5 μl of 0.1 M phosphate-buffered saline (PBS) containing IGF-I, IGF-II or a synthetic peptide derivative (1.25-2.5 μg dose, with 6 animals per treatment group). After 6 hours, the brains were removed, and ornithine decarboxylase was assayed essentially as described by Lewis et al., Proc. Natl. Acad. Sci. USA 75:1021-1023 (1978).

[5] = test system: E18 rat cortices cultures; assay: Cortical neurite outgrowth / regeneration; format: cell-based; conditions: 100 μM peptide, 96 hours
Method: To determine whether carboxy-terminal linear peptides of IGFs could promote cortical neurite regeneration, dissociated preparations of E18 rat cortices were cultured in defined insulin/serum-free media in the presence or absence of 100 μM peptides: IGF-II(54-67) (SEQ ID NO:3), IGF-I(55-70) (SEQ ID NO:4), peptide TYCAPAKSE (SEQ ID NO:1), peptide EPYCAPPAKSE (SEQ ID NO:5), IGF-II(54-67; D-Y) (SEQ ID NO:45) and IGF-II(58-67) (SEQ ID NO:2). The cultures were observed 96 hours after peptide exposure and photomicrographs were taken.

[6] = format: in vitro ADME
Method: The peptides of Examples 22 and 23 are modified peptides containing the D isomer of tyrosine (D-Y) at position 59 within IGF-II amino acids 54-67 or 58-67. These modifications were made to prevent peptide bond degradation due to enzymatic cleavage amino terminal to position 60 of IGF-II(54-67) and (58-67). Using a non-denaturing HPLC size exclusion chromatography technique the integrity of peptides IGF-II(54-67) and IGF-II(58-67) was analyzed before and after incubation with cells.

Row | Substance | total number of cells surviving relative to control (in words) [1] | further results
1 | ALLEKYCAKPAKSE [ALLEK YCAKP AKSE] | increased the total number of cells surviving | 
2 | ALLET YCATP AKSE (ALLETYCATPAKSE) [IGF-II(54-67)] | increased the total number of cells surviving | PERCENT MAX. BOUND (IGF-I receptor): 94%; displacement of 125I-[Threonine59]IGF-I (in words) (IGF-I receptor; rat brain homogenate): not significantly effective displacers; PERCENT MAX. BOUND ([2]; peptide .025 mM): 132%; PERCENT MAX. BOUND ([2]; peptide .25 mM): 167%; survival of cortical neurons (neurite bearing cells) (in words) (cortical neurons): increased the survival of cortical neurons; [3H]-leucine incorporation (in words) [3]: increased [^3H]-leucine incorporation; brain ornithine decarboxylase activity (in words) [4]: increased brain ornithine decarboxylase activity; neurite outgrowth / regeneration (in words) [5]: neurite regenerative responses were observed
3 | ALLETDYCATPAKSE (ALLET[dY]CATPAKSE) [IGF-II(54-67; D-Y)] | increased the total number of cells surviving | stability against degradation when incubated with cells (in words) [6]: stabilized against degradation when incubated with cells; neurite outgrowth / regeneration (in words) [5]: neurite regenerative responses were observed
4 | APLKP AKSA (APLKPAKSA) [IGF-I(62-70)] |  | PERCENT MAX. BOUND (IGF-I receptor): 83%
5 | APSTCEYKA [APSTC EYKA] | increased the total number of cells surviving | 
6 | CAPAKSE [CAPAK SE] | increased the total number of cells surviving | 
7 | CATPA KSE (CATPAKSE) [IGF-II (60-67)] | increased the total number of cells surviving | 
8 | EALLETYCATPAKSE [EALLE TYCAT PAKSE] | increased the total number of cells surviving | 
9 | EPYCAPPAKSE | increased the total number of cells surviving | neurite outgrowth / regeneration (in words) [5]: neurite regenerative responses were observed
10 | GYGSS SRRAP QT (GYGSSSRRAPQT) [IGF-I(30-41)] |  | PERCENT MAX. BOUND (IGF-I receptor): 94%
11 | LETYC ATP (LETYCATP) [IGF-II (56-63)] | increased the total number of cells surviving | 
12 | RRLEMYCAPLKPAKSA [IGF-I(55-70)] | increased the total number of cells surviving | neurite outgrowth / regeneration (in words) [5]: neurite regenerative responses were observed
13 | TDYCAPAKSE (T[dY]CAPAKSE) | increased the total number of cells surviving | 
14 | TDYCATPAKSE (T[dY]CATPAKSE) [IGF-II(58-67; D-Y)] | increased the total number of cells surviving | 
15 | TPAKS E (TPAKSE) [IGF-II(62-67)] |  | PERCENT MAX. BOUND (IGF-I receptor): 83%
16 | TY(I2)CAP AKSE (T[Tyr(3,5-I2)]CAPAKSE) [iodinated-TYCAPAKSE] | increased the total number of cells surviving | 
17 | TYCAP A (TYCAPA) | increased the total number of cells surviving | 
18 | TYCAPAKSE | increased the total number of cells surviving | concentration-response of cortical neuronal cell survival (in words) ([1]; relative to basal control cultures): promotes cortical neuronal cell survival in a dose-dependent manner; neurite outgrowth / regeneration (in words) [5]: neurite regenerative responses were observed
19 | TYCAT PAK (TYCATPAK) [IGF-II (58-65)] | increased the total number of cells surviving | 
20 | TYCATPAKSE [IGF-II(58-67)] | increased the total number of cells surviving | neurite outgrowth / regeneration (in words) [5]: neurite regenerative responses were observed
21 | YCAPA | increased the total number of cells surviving | 
22 | YCAPAKSE [YCAPA KSE] | increased the total number of cells surviving | 
